Data from patent publication US20240108636A1, “COMPOSITIONS FOR TREATMENT OF NEURODEGENERATIVE CONDITIONS” (BIOVIE INC., priority 2021, published 2024).
Where a name gives a salt, the structure may show the parent alone. Each block holds one compound with its values, some of them ahead of it.

Key:
[1] = system: tyrosine hydroxylase positive neurons; test: Surviving tyrosine hydroxylase positive neurons in substantia nigra of MPTP marmosets; format: in vivo, marmoset monkeys (Callithrix jacchus); details: Week 14, substantia nigra; FIG. 3
Experimental: (§1) The severity of LID was measured by abnormal involuntary movements score (AIMS) adapted to the primate PD model. The items include assessment of extremity and trunk movements, facial expression, and movement of the lips, peri-oral area, tongue, and jaw. These symptoms were scored on a scale from 0 (normal), 1 ([…]), 2 (mild), 3 (moderate) to 4 (severe). Measurement of parkinsonian behaviors continued as previously described. […] The subjects were exsanguinated under deep anaesthesia with Alphaxan (18 mg/kg i.m.). Immediately thereafter, the subjects were euthanized with EUTHASOL (pentobarbital natrium, i.c.). The brain of each subject was removed and frozen for immunohistochemical analyses. SNpc was analyzed for the presence of DA positive neurons with tyrosine hydroxylase immune reactive (TH-IR) staining.
In Week 14, all subjects were sacrificed and tissue samples from the substantia nigra were evaluated to measure the number of surviving tyrosine hydroxylase positive neurons. The increase in number of surviving TH+ neurons for subjects treated with amantadine and 17-EAT was 40% and 75%, as shown in FIG. 3.

[2] = system: MPTP model of Parkinson's disease; test: Immobility score, MPTP model of Parkinson's disease in marmoset monkeys; format: in vivo, marmoset monkeys (Callithrix jacchus); details: for Mean immobility score: 0-4 scale
Text: (§2) The 1-methyl-4-phenyl-1,2,3,6-tetrahydropyridine (MPTP) model that was used is capable of reducing striatal dopamine levels to 5% of normal controls. The MPTP model was used to produce Parkinson's-like disease symptoms in three sequential independent cohorts of six marmosets monkeys (Callithrix jacchus, approximately 0.3-0.5 kg, 2-5 years) which were then observed for 3 weeks to confirm the absence of parkinsonian behavior and motor abnormalities. A single dose of 17-EAT or amantadine was administered at the beginning of Week 4 to confirm the absence of behavioral side effects. All subjects received subcutaneous injections of 1-2 mg/kg MPTP on Days 3, 4, and 5 of Week 5 and Day 1 and 3 of Week 6 for a total of 6.5 mg/kg MPTP and were observed through the end of Week 7 without further treatment, then randomized for treatment.
Oral administration of treatment of vehicle, amantadine, or 17-EAT formulated in acacia syrup began at the start of Week 8. Vehicle controls received acacia syrup only. Amantadine HCl (Sigma Aldrich, A1260-SG) was administered daily at a dose of 1 mg/kg. 17-EAT was administered daily at a dose of 30 mg/kg. In Weeks 8 and 9 test compound activity against parkinsonian behavior was observed several times daily for effects on clinical signs (lack of grooming, apathy, immobility, muscle rigidity, and tremor activity) and given an immobility score on a 0-4 scale, with 0 being normal and 4 being the most severe score. Ratings were performed by study personnel blind to treatment.

[3] = system: levodopa-induced dyskinesia (LID); test: Abnormal involuntary movements score (AIMS), levodopa-induced dyskinesia in MPTP marmosets; format: in vivo, marmoset monkeys (Callithrix jacchus); details: for AIMS: Week 12, in combination with levodopa 10 mg/kg, items scored 0-4; for Abnormal involuntary movements scores (AIMS) in combination with levodopa: Week 12, levodopa 5, 7.5, 10, 12.5 or 25 mg/kg, FIG. 2
Experimental: as §1

[4] = system: TNF, IL-1b, IL-6, and other inflammatory cytokines; details: cited from earlier work
[5] = Body weight of MPTP marmosets; format: in vivo, marmoset monkeys (Callithrix jacchus); details: FIG. 4
Text: as §2
Oral administration of treatment of vehicle, amantadine, or 17-EAT formulated in acacia syrup began at the start of Week 8. Vehicle controls received acacia syrup only. Amantadine HCl (Sigma Aldrich, A1260-SG) was administered daily at a dose of 1 mg/kg. 17-EAT was administered daily at a dose of 30 mg/kg. […]

[6] = system: rodent models of systemic inflammation and neuroinflammation; details: cited from earlier work
[7] = Week 7, prior to treatment, 0 normal, 4 most severe
[8] = Week 8, monotherapy, oral daily (amantadine 1 mg/kg, 17-EAT 30 mg/kg)
[9] = Week 9, monotherapy, oral daily (amantadine 1 mg/kg, 17-EAT 30 mg/kg)

SMILES: NC12CC3CC(CC(C3)C1)C2 [Amantadine, Amantadine HCl]
Increase in number of surviving TH+ neurons [1]: 40%
Mean immobility score [2, 7]: 2.59
Mean immobility score [2, 8]: 2.74
Mean immobility score [2, 9]: 2.72
AIMS [3]: 4.5
Abnormal involuntary movements scores (AIMS) in combination with levodopa [3]: improved compared to monotherapy

SMILES: C#C[C@]1(O)CC[C@H]2[C@@H]3[C@@H](O)C=C4C[C@@H](O)CC[C@]4(C)[C@H]3CC[C@@]21C [Compound 17-EAT, 17-ethynyl-10R, 13S-dimethyl 2,3,4,7, 8R, 9S, 10, 11, 12, 13, 14S, 15, 16, 17-hexadecahydro-1H-cyclopenta[a]phenanthrene-3R, 7R, 17S-triol]
Increase in number of surviving TH+ neurons [1]: 75%
Expression of TNF, IL-1b, IL-6, and other inflammatory cytokines [4]: decreases expression
Mean immobility score [2, 7]: 2.72
Mean immobility score [2, 8]: 2.26
Mean immobility score [2, 9]: 2.10
Mean immobility scores in combination with levodopa ([2]; combination with levodopa 5, 7.5, 10, 12.5 or 25 mg/kg, FIG. 1): improved compared to 17-EAT monotherapy
Mean body weight [5]: maintained a higher mean body weight compared to either vehicle or amantadine
AIMS [3]: 2.1
Abnormal involuntary movements scores (AIMS) in combination with levodopa [3]: improved compared to monotherapy
Activity in rodent models of neurological disease ([6]; Parkinson's disease, experimental autoimmune encephalomyelitis, optic neuritis, glaucoma): anti-neuroinflammatory or neuroprotective activity
Activity in rodent models of systemic inflammation ([6]; type 2 diabetes, COPD, rheumatoid arthritis): active in rodent models of systemic inflammation

LID expression ([3]; levodopa 12.5 mg/kg BID): induced LID expression in all subjects
SMILES: N[C@@H](Cc1ccc(O)c(O)c1)C(=O)O [Levodopa, L-3,4-dihydroxyphenylalanine]
